Reference: a melting point compilation (Tetko et al.; mined from patent text by program, amines drawn as free bases though some values may be those of a salt)
Residues, ends and D or L forms follow the SMILES beside them. *: point of attachment. Bz = O=C(c1ccccc1)*

| SMILES | melting point [°C] |
| --- | --- |
| CC(Oc1ncn(-c2cccc(C(F)(F)F)c2)n1)C(=O)O (centres undefined) | 206 to 208 |
| Cc1cc(C)c(Nc2nc(C)ccc2S(=O)(=O)c2ccc(OCc3cc(Cl)nc(Cl)c3)cc2)c(C)c1 | 192 to 201 |
| COC(=O)c1ccc(C(=O)CCCOC(C)=O)cc1 | 61 to 62 |
| CCCN1CCC(C(=O)Nc2ccc(CN(C)C3CCOCC3)cc2)=Cc2cc(Br)ccc21 | 134 to 136 |
| COc1ccc(NC(=O)c2ccc(Cl)c(Cl)c2)cc1NS(=O)(=O)c1ccc(C)cc1 | 228 to 230 |
| C=C(CCCCCCCCCCCCCCCC)CC(CO)COCCCCCCCCCCCCCCCC (centres undefined) | 37 to 38 |
| OCCN1CCN(c2cc(Sc3ccc(Cl)cc3)nc(-c3ccccc3)n2)CC1 | 118 to 120 |
| CN(c1ccncc1[N+](=O)[O-])n1cccc1C=O | 101 to 107 |
| Cc1nc2cccc(O)c2o1 | 152 to 154 |
| CCc1cc(C)cc(CC)c1C1C(=O)C2CC(COc3nc(C)c(C)s3)CC2C1=O (centres undefined) | 73 to 74 |
| CCOC(=O)C1=C(C)NC(CO)=C(C(=O)OCC)C1c1cccs1 (centres undefined) | 125 to 126 |
| O=C1C2=C(CCCC2)C(=O)N1c1ccc(Cl)c2c1CC(CBr)O2 (centres undefined) | 134 to 136 |
| O=C1C=CC(O)(c2ccccc2)C=C1 | 102 to 103 |
| COc1ccc(C2Sc3cc(Oc4ccccc4)ccc3NC(=O)C2O)cc1Cl (centres undefined) | 262 to 264 |
| Cc1ccccc1Cc1cccc(-c2ncc3c(n2)CCOC3)n1 | 132 to 133 |
| CC1=C(C)C2=NC(C)(C(C)C)C(=O)N2C1=O (centres undefined) | 98 to 99 |
| COC(=O)C1=Cc2cc(Br)ccc2S(=O)(=O)CC1 | 162 to 164 |
| CN1C(=O)[C@H](NC(=O)COc2ccccc2)N=C(c2ccccc2)c2ccccc21 | 126 to 128 |
| COc1cc(C2=NC(C)(C)CO2)cc(OC)c1SC | 82.5 to 84.5 |
| C1=C(c2cccs2)CCC(N2CCN(c3ccccn3)CC2)C1 (centres undefined) | 156 to 158 |
| OCc1cccc(-c2nn(Cc3ccccc3)c3ccccc23)c1 | 98 to 99 |
| CCc1nc2c(cnn2CC)c(NC2CCOCC2)c1CNC(=O)c1cccc(C(=O)NCc2ccc(F)c(-c3cccc(CN4CCN(C(C)C)CC4)c3)c2)c1 | 165 to 169 |
| COC(=O)c1cc(NC(=O)OC(C)(C)C)c(N)cc1I | 60 to 78 |
| Nc1nc(Cl)c(NC=O)c(N[C@H]2C=C[C@@H](CO)C2)n1 | 174 to 176 |
| COC(=O)c1ccc(OC2=C3N=C4CCCCC4=C3C(Cc3ccccc3F)C=C2)o1 (centres undefined) | 121 to 122 |

| SMILES | melting point [°C] |
| --- | --- |
| O=C(Nc1ccc2ccc(Cl)nc2n1)C1=CSCCS1 | 237 |
| Cc1c(C(=O)O)cnn1-c1ccc(F)c(F)c1 | 148 |
| O=C1NC(=S)SC1=Cc1ccccc1C(=O)O | 276 to 278 |
| Cc1ccc(-c2cccc(/C=C/C(=O)Nc3ccc(CN4CCCCC4)cc3)c2)cc1 | 154 to 156 |
| O=C(Nc1cccc(-c2ccnc3c(C(=O)c4cccs4)cnn23)c1)OCCCN1CCOCC1 | 198 to 199 |
| O=C(COc1ccc(-c2ccccc2)cc1Br)c1ccccc1 | 93 to 95 |
| CCc1cc(I)c(CC)cc1I | 68 to 69 |
| Nc1c(N=O)c(=O)n(CCC2CCCCC2)c(=O)n1CCC1CCCCC1 | 231 to 233 |
| Nc1cc(F)c(OC(F)F)cc1[N+](=O)[O-] | 95 to 97.5 |
| COc1nc(N2CC(O)C2)c(Cl)nc1NS(=O)(=O)c1cccc(Cl)c1Cl | 93 to 95 |
| CC(C)(C)c1ccc(CCOc2ncnc3ncccc23)cc1 | 77 to 79 |
| COc1ccccc1NC(=O)Nc1ccc(C2CCN(C(=O)Nc3ccc(OCCO)cc3Cl)CC2)cc1 | 166 to 168 |
| CC[C@H](COC)n1cc(Cl)nc(N2CCc3cc(OC)cc(C)c32)c1=O | 62 to 64 |
| CCOCc1nc(N)c2nccnc2n1 | 152 to 154 |
| Cc1coc2ccc(C#N)cc12 | 73 |
| CC(C)c1cccc(C(C)C)c1NC(=O)CN1CCN(CCCSc2nc3ncccc3o2)CC1 | 125 to 127 |
| CC(=O)NCCC[C@H]1NC(=O)[C@@H](Cc2cn(C)c3ccccc23)NC1=O | 138 |
| CC(C)CC(Sc1ccccc1)c1c(O)cc(-c2ccccc2)oc1=O (centres undefined) | 154 to 156 |
| COc1cc2ncc(C#N)c(Nc3ccc(SC)cc3)c2cc1OC | 235 to 237 |
| COC(=O)NCC1CC(c2ccccc2)=NO1 (centres undefined) | 102 to 103 |
| CN(C)c1ncc(C(=O)NCc2ccccc2)c(S)n1 | 175 to 178 |
| COc1cc(C)nc(NC(=O)NS(=O)(=O)c2ccccc2CCC(F)(F)F)n1 | 174 to 175 |
| CN(Cc1ccc(NC(=O)C2=Cc3cc(-c4ccc(Cl)c(Cl)c4)ccc3S(=O)(=O)CC2)cc1)C1CCOCC1 | 235 to 237 |
| CN(Cc1cccc2c1C(=O)N(C1CCC(=O)NC1=O)C2=O)C(=O)C1CC1 (centres undefined) | 243 to 245 |
| Cn1ccnc1Sc1ccc(Nc2c(C#N)cnc3cc(-c4ccc(CN5CCNCC5)cc4)ccc23)cc1Cl | 140 to 142 |

| SMILES | melting point [°C] |
| --- | --- |
| COc1ccc(OC)c(CC(=O)c2ccc(C(C)C)c(OS(N)(=O)=O)c2C(C)C)c1 | 150 to 152 |
| COc1ccc(N2CCN(c3ccc([N+](=O)[O-])cn3)CC2)cc1 | 165 to 166 |
| COC(=O)c1ccc(CC(C)NCC(O)c2ccc(O)c(CO)c2)c(OC)c1 (centres undefined) | 96 to 105 |
| CCC1(CC)c2cc(N)ccc2-c2ccc(-c3nc4ccccc4s3)cc21 | 206 to 207 |
| COc1cc(Cl)nc(NC(=O)NS(=O)(=O)c2ccccc2-c2nnnn2C)n1 | 225 to 227 |
| CNC(=O)c1cccc(C)c1Nc1nc(Nc2ccc3c(c2)N(CCOC)C(=O)CCC3)ncc1Cl | 185 to 187 |
| CN1CCCC1=Nc1ncnc2c1ncn2C1=CC(=O)CC1 | 200 to 205 |
| COc1cccc(N(CCN2CCC(C(=O)c3ccc(F)cc3)CC2)C(=O)c2ccc(N)cc2)c1 | 126 to 128 |
| CC12CCC3c4ccc(C(=O)O)cc4CCC3C1CCC2C(=O)CCc1ccccc1 (centres undefined) | 181 to 183 |
| CCOc1nc2c(nc1C(=O)Cl)c(C)nn2CC | 109 to 111 |
| O=C1NC(=S)SC1=Cc1cccc(OCc2ccc(C(=O)c3ccccc3)cc2)c1 | 212 to 214 |
| CC(=Cn1ccnc1)C(=O)c1ccc(Cl)cc1Cl | 129 to 130 |
| CCNCC1CCN(c2c(F)cc3c(=O)c(C(=O)O)cn(CC)c3c2F)C1 (centres undefined) | 208 to 210 |
| CCCCCCNc1ncnc(N(C)C)c1N | 123 to 125 |
| CC(C)(C)OC(=O)NC1Cc2ccccc2C(F)C1O (centres undefined) | 98 to 99 |
| COCCc1nc2c(N)nc3cc(-c4ccccc4)ccc3c2n1CC(C)(C)O | 226 to 227 |
| CN(C)c1nc(N(C)Cc2ccccc2O)nc(N(C)Cc2ccccc2O)n1 | 156 to 157 |
| O=C(O)CCC(=O)Nc1cccc(-c2ccnc3c(C(=O)c4cccs4)cnn23)c1 | 240 to 241 |
| O=C(O)c1nc(-c2ccc(Cl)cc2Cl)c(-c2ccccc2)s1 | 105 |
| CCOC(=O)CC(=O)Nc1c(F)cccc1[N+](=O)[O-] | 99 to 102 |
| CCC(CC)CC(NC(=O)COC)C1(c2ccc(Cl)c(Cl)c2)CCC1 (centres undefined) | 72 to 74 |
| N#CC1CC(=O)c2cc(F)ccc2O1 (centres undefined) | 87 to 89 |
| CC1(C)CC(c2ccc(Cl)cc2)=C(c2ccc(S(C)(=O)=O)cc2)C1 | 144 to 145 |
| CNc1nc(-c2ccc(Cl)c(Cl)c2)ncc1N(C)C(=O)N1CCOCC1 | 227 |
| COC(=O)C(Cc1ccc(O)cc1)NC(=O)C(Cc1ccccc1)NC(=O)c1ccccc1 (stereo not drawn) (Bz-Phe-Tyr-OMe; configuration not given here) | 188 to 190 |

| SMILES | melting point [°C] |
| --- | --- |
| CC(=O)C(C)(C(C)=O)C(C)=O | 33 to 35 |
| Cc1ccc(S(=O)(=O)NC(=O)C(c2cc3c(cc2Cl)OCO3)c2cn(C)c3cc(CO)ccc23)cc1 (centres undefined) | 207 to 209 |
| Cc1cc2c(c([N+](=O)[O-])c1)N(c1ccccc1C#N)CC2 | 138 to 139 |
| CCOC(=O)NC1CCCCn2c1nc(-c1ccncn1)c(Br)c2=O (racemic) | 72 to 74 |
| COC(=O)C1=C(CF)NC(C)=C(C(=O)OC(C)C)C1c1cccc(Cl)c1Cl (centres undefined) | 148 to 149 |
| O=CNCC1=CNCN1[C@H]1CCc2c(F)cc(F)cc2C1 | 194 to 195 |
| O=C(O)CC(CNC(=O)C1Cc2ccccc2N1S(=O)(=O)c1ccc(-c2cccc(C(F)(F)F)c2)cc1)c1ccccc1 (centres undefined) | 90 |
| CC1=Nc2c(C)nn(CC(F)(F)F)c2C2=NC(C)CN12 (centres undefined) | 91 to 95 |
| CCOC(=O)CC[C@H](NC(=O)c1ccc2c(c1)CCN2Cc1cnc2nc(N)nc(N)c2n1)C(=O)OCC | 168 to 170 |
| CN(C)Cc1ccc(C(=O)CCC(=O)N2CCN(c3ccc(N4C[C@H](CNC(=S)C5CC5)OC4=O)cc3F)CC2)cc1 | 174 to 175 |
| Cc1nc(-c2ccc(C(F)(F)F)cc2)sc1CCOc1ccc(CC(=O)O)cc1 | 128 to 130 |
| COc1ccc(CCNc2nc(N)c3nc(-c4ccco4)oc3n2)cc1OC | 155 to 158 |
| Nc1cc(Cl)cnc1F | 74 |
| OCC1OC(n2cnc3c(NC4CCCC4O)ncnc32)C(O)C1O (centres undefined) | 163 to 164 |
| CCN(CC)C(=O)c1c(-c2ccccc2)ccc2cc(-c3ccc(OC)cc3)ccc12 | 147 to 148 |
| COc1cc(C(=O)O)c2c(c1OC)OC(C1CC1)C=C2 (centres undefined) | 124 to 126 |
| Cn1nnnc1SCC1=NCCc2cc(OCc3ccccc3)c(OCc3ccccc3)cc21 | 146 to 148 |
| COCc1ccc(C2(O)CCN(CC(O)c3ccc(O)cc3)CC2)cc1 (centres undefined) | 170 |
| CCOC(=O)/C=C/c1ccc(O)cc1Oc1ncc(C(F)(F)F)cc1Cl | 124 |
| CN=C(NC#N)NCCSCc1c[nH]cn1 | 138 to 140 |
| CNC(=O)[C@@H]1CCN1S(=O)(=O)c1ccc(Cl)c(COc2cccc3c(-n4ccnc4)cc(C)nc23)c1Cl | 118 |
| C=C(C)C#Cc1ccc2c(c1)NC(=O)CC(c1cccc(C#N)c1)=N2 | 231 |
| COc1ccc(C2CCN(CCCCc3ccccc3)CC2)cc1 | 48 to 50 |
| CSc1cc2n(c1C(=O)c1ccccc1)CCC2C(=O)O (centres undefined) | 191 to 192 |
